Experimental data: patent publication US7846917B2, “18-Methyl-19-norandrost-4-ene 17, 17-spiro ether (18-methyl-19-nor-20-spirox-4-en-3-one), and pharmaceutical products comprising the same” (Bayer Schering Pharma AG, priority 2006, dated 2010)

Key:
[1] = target: T1, progesterone receptor (Oryctolagus cuniculus, UniProt P06186); test: progesterone receptor binding assay using cytosol from rabbit uterus homogenate; conditions: for PR [KF]: 3H-progesterone = 1; for PR [RBA]: 3H-progesterone = 100
T1 construct: cytosol from rabbit uterus homogenate; from tissue; host or cells: rabbit uterus (cytosol of homogenate)
T1 sequence (P06186 1-930): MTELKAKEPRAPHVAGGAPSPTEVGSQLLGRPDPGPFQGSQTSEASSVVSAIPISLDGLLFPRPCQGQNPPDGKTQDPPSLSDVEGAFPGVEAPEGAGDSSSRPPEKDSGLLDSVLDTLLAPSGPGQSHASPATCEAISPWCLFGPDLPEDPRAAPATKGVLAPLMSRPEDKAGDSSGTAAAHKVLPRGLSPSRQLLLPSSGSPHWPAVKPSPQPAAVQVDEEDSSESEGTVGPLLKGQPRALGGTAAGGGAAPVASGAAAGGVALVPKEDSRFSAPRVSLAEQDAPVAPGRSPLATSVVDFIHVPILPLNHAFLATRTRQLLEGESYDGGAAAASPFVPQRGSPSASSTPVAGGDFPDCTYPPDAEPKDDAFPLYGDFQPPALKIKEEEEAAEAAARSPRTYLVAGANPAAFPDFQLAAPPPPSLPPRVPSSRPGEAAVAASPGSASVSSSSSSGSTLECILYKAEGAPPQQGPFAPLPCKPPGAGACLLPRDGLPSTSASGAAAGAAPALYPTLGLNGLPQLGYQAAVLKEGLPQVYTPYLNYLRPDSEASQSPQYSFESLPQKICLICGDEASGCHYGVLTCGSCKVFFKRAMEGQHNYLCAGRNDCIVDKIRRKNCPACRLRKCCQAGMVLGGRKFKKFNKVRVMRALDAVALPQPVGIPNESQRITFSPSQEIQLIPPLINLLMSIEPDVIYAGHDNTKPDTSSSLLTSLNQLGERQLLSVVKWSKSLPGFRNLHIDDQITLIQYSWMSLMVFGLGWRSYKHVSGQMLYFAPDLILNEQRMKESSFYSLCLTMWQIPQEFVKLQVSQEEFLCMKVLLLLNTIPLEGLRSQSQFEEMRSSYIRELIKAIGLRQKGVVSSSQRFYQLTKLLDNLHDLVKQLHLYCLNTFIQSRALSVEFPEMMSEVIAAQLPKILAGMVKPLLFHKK
Source text: (§1) This object is achieved by the provision of the 18-methyl-15β,16β-methylene-19-nor-20-spirox-4-en-3-ones of the general formula I described herein.

[2] = target: T2, mineralocorticoid receptor (Rattus norvegicus, UniProt P22199); test: mineralocorticoid receptor binding, rat kidney homogenate; conditions: for MR [KF]: 3H-aldosterone = 1; for MR [RBA]: 3H-aldosterone = 100
T2 construct: mineralocorticoid receptor from rat kidney homogenate; from tissue; host or cells: rat kidney homogenate
T2 sequence (P22199 1-981): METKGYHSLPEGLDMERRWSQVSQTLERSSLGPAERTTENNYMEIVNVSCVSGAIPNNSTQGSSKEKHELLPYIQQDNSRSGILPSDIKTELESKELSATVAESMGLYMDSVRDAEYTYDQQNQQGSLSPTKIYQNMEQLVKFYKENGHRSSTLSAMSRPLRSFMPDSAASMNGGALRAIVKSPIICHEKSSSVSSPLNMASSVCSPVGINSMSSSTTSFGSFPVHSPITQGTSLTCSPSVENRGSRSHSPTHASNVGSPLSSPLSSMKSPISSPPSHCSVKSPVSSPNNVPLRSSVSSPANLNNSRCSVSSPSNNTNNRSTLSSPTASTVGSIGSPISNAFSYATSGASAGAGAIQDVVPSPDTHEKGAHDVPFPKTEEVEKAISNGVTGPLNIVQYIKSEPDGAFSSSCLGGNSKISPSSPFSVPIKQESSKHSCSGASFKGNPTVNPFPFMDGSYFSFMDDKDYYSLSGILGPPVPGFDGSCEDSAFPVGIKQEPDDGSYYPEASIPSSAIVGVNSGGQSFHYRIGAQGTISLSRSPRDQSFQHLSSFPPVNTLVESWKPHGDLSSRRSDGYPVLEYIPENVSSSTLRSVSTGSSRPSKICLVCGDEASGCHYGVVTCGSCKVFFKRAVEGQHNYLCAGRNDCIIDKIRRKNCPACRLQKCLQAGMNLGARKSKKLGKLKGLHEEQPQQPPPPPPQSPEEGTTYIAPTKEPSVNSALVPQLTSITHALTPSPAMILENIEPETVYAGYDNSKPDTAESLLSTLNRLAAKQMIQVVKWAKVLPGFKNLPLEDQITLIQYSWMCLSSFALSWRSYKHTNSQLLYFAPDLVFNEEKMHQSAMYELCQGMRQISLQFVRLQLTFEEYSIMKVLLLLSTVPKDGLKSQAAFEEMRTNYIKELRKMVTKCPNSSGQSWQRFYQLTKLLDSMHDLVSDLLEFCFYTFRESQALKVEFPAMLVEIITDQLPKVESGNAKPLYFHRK
Source text: as §1

Row | Compound | PR [KF] [1] | PR [RBA] [1] | MR [KF] [2] | MR [RBA] [2]
1 | C[C@]12CCC(=O)C=C1[C@@H]1C[C@@H]1[C@H]1[C@@H]3[C@@H]4C[C@@H]4[C@@]4(CCC(=O)O4)[C@@]3(C)CC[C@@H]12 [DRSP, 6β,7β-15β,16β-dimethylene-3-oxo-17-pregn-4-ene-21,17β-carbolactone, reference compound] | 2.5 | 40 | 0.3 | 333
2 | CC[C@]12CCC3C4CCC(=O)C=C4C4CC4C3C1[C@@H]1C[C@@H]1[C@@]21CCCO1 (stereo partly drawn) [Example 2, 18-Methyl-6α,7α,15β,16β-dimethylene-19-nor-20-spirox-4-en-3-one] | 2.34 | 43 | 0.4 | 250
3 | CC[C@]12CC[C@H]3[C@H]([C@@H]1[C@@H]1C[C@@H]1[C@@]21CCCO1)[C@H](C)CC1=CC(=O)CC[C@@H]13 [Example 6, 7α,18-Dimethyl-15β,16β-methylene-19-nor-20-spirox-4-en-3-one] | 1.13 | 88 | 0.6 | 167
4 | CCC12CCC3C4CCC(=O)C=C4CC(C)C3C1C1CC1C21CCCO1 (stereo not drawn) [Example 7, 7β,18-Dimethyl-15β,16β-methylene-19-nor-20-spirox-4-en-3-one] | 1.08 | 93 | 0.5 | 200
5 | CCC1CC2=CC(=O)CCC2C2CCC3(CC)C(C4CC4C34CCCO4)C12 (stereo not drawn) [Example 9, 7β-Ethyl-18-methyl-15β,16β-methylene-19-nor-20-spirox-4-en-3-one] | 4.295 | 23 | 42 | 2
6 | CC[C@]12CC[C@H]3[C@H]([C@@H]1[C@@H]1C[C@@H]1[C@@]21CCCO1)[C@H](C1CC1)CC1=CC(=O)CC[C@@H]13 [Example 12, 7α-Cyclopropyl-18-methyl-15β,16β-methylene-19-nor-20-spirox-4-en-3-one] | 2.355 | 42 | 0.7 | 143
7 | CC[C@]12CC[C@H]3[C@@H](CCC4=C(C)C(=O)CC[C@@H]43)[C@@H]1[C@@H]1C[C@@H]1[C@@]21CCCO1 [Example 14, 4,18-Dimethyl-150,16β-methylene-19-nor-20-spirox-4-en-3-one] | 3.245 | 31 | 7.6 | 13
8 | CCC12CCC3C4CCC(=O)C(C)=C4C4CC4C3C1C1CC1C21CCCO1 (stereo not drawn) [Example 17, 4,18-Dimethyl-6β,7β,15β,16β-dimethylene-19-nor-20-spirox-4-en-3-one] | 3.45 | 29 | 7.8 | 13
9 | CC[C@]12CC[C@H]3[C@@H]([C@H]4C[C@H]4C4=C(Cl)C(=O)CC[C@@H]43)[C@@H]1[C@@H]1C[C@@H]1[C@@]21CCCO1 [Example 18, 4-Chloro-18-methyl-6β,7β,15β,16β-dimethylene-19-nor-20-spirox-4-en-3-one] | 3.01 | 33 | 88 | 1
